Laboratory results reported in paper PMC7984888, “Inhibitory Activity of Pyrroloisoxazolidine Derivatives against Chlamydia trachomatis” (BioMed Research International, 2021).

Tested on: Uninfected HeLa cells
Assay: Host cell cytotoxicity (morphology, nuclear integrity, cell count)
Assay type: cell-based
Details: 48 h, Evans blue, DAPI, cell counting
Experimental: Uninfected HeLa cells were cultured with indicated concentration of individual compound or 0.5% DMSO. Forty-eight hours later, cells were fixed with methanol and stained with Evans blue for morphology or DAPI for nuclear integrity. Otherwise, at 48 h later, cells were detached and enumerated by a hemacytometer.  Figure 2 Lack of cytotoxicity of compounds 1 and 2 on HeLa cells. Uninfected HeLa cells were cultured with medium containing various concentrations of individual compound or 0.5% DMSO for 48 h. (a) The cellular morphology was stained with Evans blue, and cell nucleus was stained with DAPI. (b) The cells were enumerated by a hemacytometer. Data are presented as mean ± SD of three independent assays.

SMILES | Cytotoxic activity on host cells (morphology, nuclear integrity, cell proliferation)
c1ccc(C2C3CC(c4ccccc4)N(c4ccccc4)C3ON2c2ccccc2)cc1 (centres unmarked) [Compound 1] | No substantial cytotoxic activity
Clc1ccc(N2C(c3ccccc3)CC3C(c4ccccc4)N(c4ccccc4)OC32)cc1 (centres unmarked) [Compound 2] | No substantial cytotoxic activity
